According to the supplement of paper PMC11208160:

Assay: recombinant UMI read abundance after kanamycin selection (control-corrected) (log10(CPM+1)); higher = more efficient recombination; extreme values may be limits of the assay; sequences stand for … in AGTGCAGAGAAAATCGGCCAGTTTTCTCTGCCTGCAGTCCGCATGCCGTGGGACCCCTTGGGTTCTAACCTGTTGCCTAGATTTATGCAGCGGACTGCCTTTCTCCCAAAGTGATAAACCGG…AGGTTGGTTTCACT; site = the 11-nt donor
Method in brief: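 Reported values are log10(CPM+1) from a pooled Escherichia coli screen of donor and donor-binding-loop pairs for the IS621 bridge recombinase. Selection used IPTG (0.07 mM) plus kanamycin, against unselected plating, each in two replicates. Recombinant UMIs were amplified across the donor–target junction, sequenced, converted to CPM, averaged over replicates and scaled by control-derived factors.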
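Note: IS621 bridge recombinase in Escherichia coli cells against a fixed T5 target plasmid.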

Row | Sequence | recombinant UMI read abundance (log10)
1 | CCCGGTCCATGGACCGGTTTTCCCGGTAATCCGTATTTGCA (site CCCGGTCCTTC) | 0
2 | CCCGGTCCATGGACCGGTTTTCCCGGTAATCCGTATTTGCA (site CCCGGTCCTTG) | 0
3 | CCCGGTCCATGGACCGGTTTTCCCGGTAATCCGTATTTGCA (site CCCGGTCCTTT) | 0.0121
4 | CCCGGTCCATGGACCGGTTTTCCCGGTAATCCGTATTTGCA (site CCCGGTGCTTG) | 0
5 | CCCGGTCCATGGACCGGTTTTCCCGGTAATCCGTATTTGCA (site CCCGGTTCTTG) | 0
6 | CCCGGTCCATGGACCGGTTTTCCCGGTAATCCGTATTTGCA (site CCCGTTCCTTG) | 0
7 | CCCGGTCCATGGACCGGTTTTCCCGGTAATCCGTATTTGCA (site CCCTGTCCTTG) | 0.00802
8 | CCCGGTCCATGGACCGGTTTTCCCGGTAATCCGTATTTGCA (site CCGGGTCCTTG) | 0.00973
9 | CCCGGTCCATGGACCGGTTTTCCCGGTAATCCGTATTTGCA (site CCTGGTCCTTG) | 0.00597
10 | CCCGGTCCATGGACCGGTTTTCCCGGTAATCCGTATTTGCA (site CGCGGTCCTTG) | 0
11 | CCCGGTCCATGGACCGGTTTTCCCGGTAATCCGTATTTGCA (site CTCGGTCCTTG) | 0.00601
12 | CCCGGTCCATGGACCGGTTTTCCCGGTAATCCGTATTTGCA (site GCCGGTCCTTG) | 0
13 | CCCGGTCCATGGACCGGTTTTCCCGGTAATCCGTATTTGCA (site TCCGGTCCTTG) | 0.00534
14 | CCCGGTCCATGGACCGGTTTTCCCGGTAATCCGTATTTGCT (site CCCGGTCCTAG) | 0
15 | CCCGGTCCATGGACCGGTTTTCCCGGTAATCCGTATTTGCT (site CCCGGTCCTCG) | 0.0027
16 | CCCGGTCCATGGACCGGTTTTCCCGGTAATCCGTATTTGCT (site CCCGGTCCTGG) | 0
17 | CCCGGTCCATGGACCGGTTTTCCCGGTAATCCGTATTTGCT (site CCCGGTCCTTG) | 0
18 | CCCGGTCCATGGACCGGTTTTCCCGGTAATCCGTATTTGTA (site CCCGGTCCTTA) | 0
19 | CCCGGTCCATGGACCGGTTTTCCCGGTAATCCGTATTTGTA (site CCCGGTCCTTC) | 0.0127

Row | Sequence | recombinant UMI read abundance (log10)
20 | CCCGGTCCATGGACCGGTTTTCCCGGTAATCCGTATTTGTA (site CCCGGTCCTTG) | 0
21 | CCCGGTCCATGGACCGGTTTTCCCGGTAATCCGTATTTGTA (site CCCGGTCCTTT) | 0.041
22 | CCCGTATCATGGACCGGTTTTCCCGGTAATCCGTATTTGGT (site CCCGTATCTAC) | 0.563
23 | CCCGTCGCATGGACCGGTTTTCCCGGTAATCCGTATTTGCT (site CCCGTCGCTAG) | 0.795
24 | CCCTACACATGGACCGGTTTTCCCGGTAATCCGTATTTGTA (site CCCAACACTTA) | 0.0262
25 | CCCTACACATGGACCGGTTTTCCCGGTAATCCGTATTTGTA (site CCCCACACTTA) | 0.00329
26 | CCCTACACATGGACCGGTTTTCCCGGTAATCCGTATTTGTA (site CCCGACACTTA) | 0.0499
27 | CCCTACACATGGACCGGTTTTCCCGGTAATCCGTATTTGTA (site CCCTACACTTA) | 0.0328
28 | CCCTAGCCATGGACCGGTTTTCCCGGTAATCCGTATTTGTC (site CCCTAGCCTGA) | 0.265
29 | CCCTAGCCATGGACCGGTTTTCCCGGTAATCCGTATTTGTC (site CCCTAGCCTGC) | 0
30 | CCCTAGCCATGGACCGGTTTTCCCGGTAATCCGTATTTGTC (site CCCTAGCCTGG) | 0
31 | CCCTAGCCATGGACCGGTTTTCCCGGTAATCCGTATTTGTC (site CCCTAGCCTGT) | 0
32 | CCCTATTCATGGACCGGTTTTCCCGGTAATCCGTATTTGGA (site CCCTATTCTTC) | 0.0708
33 | CCCTTATCATGGACCGGTTTTCCCGGTAATCCGTATTTGCA (site CCCTTATCTTG) | 2.15
34 | CCCTTATCATGGACCGGTTTTCCCGGTAATCCGTATTTGTC (site CCCATATCTGA) | 0
35 | CCCTTATCATGGACCGGTTTTCCCGGTAATCCGTATTTGTC (site CCCCTATCTGA) | 0
36 | CCCTTATCATGGACCGGTTTTCCCGGTAATCCGTATTTGTC (site CCCGTATCTGA) | 0
37 | CCCTTATCATGGACCGGTTTTCCCGGTAATCCGTATTTGTC (site CCCTTATCTGA) | 0.909
